Measured values from patent US10723695B2, “Microbiocidal phenylamidine derivatives” (SYNGENTA PARTICIPATIONS AG, priority 2015, dated 2020).

Legend:
Type in all cases: in vivo
[1] = test system: Blumeria graminis f. sp. tritici (Erysiphe graminis f. sp. tritici); test: Blumeria graminis f. sp. tritici / wheat / leaf disc preventative (powdery mildew on wheat); details: foliar, wheat leaf segments cv. Kanzler, compared to untreated control leaf disks, read-out: disease control
Source text: Blumeria graminis f. sp. tritici (Erysiphe graminis f. sp. tritici)/Wheat/Leaf Disc Preventative (Powdery Mildew on Wheat) Wheat leaf segments cv. Kanzler were placed on agar in a multiwell plate (24-well format) and sprayed with the formulated test compound diluted in water. The leaf disks were inoculated by shaking powdery mildew infected plants above the test plates 1 day after application.

Phakopsora pachyrhizi = Phakopsora pachyrhizi / soybean / leaf disk preventative (soybean rust); details: foliar, soybean leaf disks, compared to untreated control leaf disks, read-out: disease control
Method: Phakopsora pachyrhizi/Soybean/Leaf Disk Preventative (Soybean Rust) Four-week old soybean plants are sprayed in a spray chamber with the formulated test compound diluted in water. Leaf disks are cut from treated plants and placed on agar into 24-well plates one day after application. Leaf disks are inoculated by spraying them with a spore suspension on their lower leaf surface. After an incubation period in a climate cabinet of 24-36 hours in darkness at 20° C. and 75% rh, the leaf disks are then kept at 20° C. with 12 h light/day and 75% rh. The percentage leaf disk area covered by disease is assessed when an appropriate level of disease appears on untreated check plants (12-14 days after application).

[2] = test system: Puccinia recondita f. sp. tritici; test: Puccinia recondita f. sp. tritici / wheat / leaf disc preventative (brown rust); details: foliar, wheat leaf segments cv. Kanzler, compared to untreated control leaf disks, read-out: disease control
Method: Puccinia recondita f. sp. tritici/Wheat/Leaf Disc Preventative (Brown Rust) Wheat leaf segments cv. Kanzler were placed on agar in multiwell plates (24-well format) and sprayed with the formulated test compound diluted in water. The leaf disks were inoculated with a spore suspension of the fungus 1 day after application. The inoculated leaf segments were incubated at 19° C. and 75% rh under a light regime of 12 h light/12 h darkness in a climate cabinet and the activity of a compound was assessed as percent disease control compared to untreated when an appropriate level of disease damage appears in untreated check leaf segments (7-9 days after application).

[3] = test system: Puccinia recondita f. sp. tritici; test: Puccinia recondita f. sp. tritici / wheat / leaf disc curative (brown rust); details: foliar, 24 h, wheat leaf segments cv. Kanzler, curative (applied 1 day after inoculation), compared to untreated control leaf disks, read-out: disease control
Method: Puccinia recondita f. sp. tritici/Wheat/Leaf Disc Curative (Brown Rust) Wheat leaf segments cv. Kanzler are placed on agar in multiwell plates (24-well format). The leaf segments are inoculated with a spore suspension of the fungus. Plates were stored in darkness at 19° C. and 75% rh. The formulated test compound diluted in water was applied 1 day after inoculation.

Measured: pest or weed control at 200 ppm

CCN(C)/C=N/c1cc(OC)c(C(O)(c2ccccc2)C(F)F)cc1C (stereo not drawn) [Compound E1.005]
≥ 80%: all assays above

CCN(C)/C=N/c1cc(OC)c(C(C)(O)c2ccccc2)cc1C (stereo not drawn) [Compound E1.007, N-ethyl-N′-[4-(1-hydroxy-1-phenyl-ethyl)-5-methoxy-2-methyl-phenyl]-N-methyl-formamidine]
≥ 80%: all assays above

COc1cc(/N=C/N(C)C2CC2)c(C)cc1C(O)(c1ccccc1)C(F)(F)F (stereo not drawn) [Compound E1.008]
≥ 80%: [2] | [3]

CCN(C)/C=N/c1cc(OC)c(C(O)(c2cc(Cl)cc(Cl)c2)C(F)(F)F)cc1C (stereo not drawn) [Compound E1.013]
≥ 80%: [1] | [2] | [3]

CCN(C)/C=N/c1cc(OC)c([C@](O)(c2ccccc2)C(F)(F)F)cc1C [Compound E1.014]
≥ 80%: all assays above

CCN(C)/C=N/c1cc(OC)c([C@@](O)(c2ccccc2)C(F)(F)F)cc1C [Compound E1.015]
≥ 80%: all assays above

CCN(C)/C=N/c1cc(OC)c(C(O)(c2ccccc2OC)C(F)(F)F)cc1C (stereo not drawn) [Compound E1.030]
≥ 80%: all assays above

CCN(C)/C=N/c1cc(OC)c(C(O)(c2ccc(SC(F)F)cc2)C(F)(F)F)cc1C (stereo not drawn) [Compound E1.038]
≥ 80%: [1] | [3]

CCN(C)/C=N/c1cc(OC)c(C(O)(c2cccc(SC)c2)C(F)(F)F)cc1C (stereo not drawn) [Compound E1.042]
≥ 80%: [1] | [3]

CCCCC(O)(c1cc(C)c(/N=C/N(C)C2CC2)cc1OC)C(F)(F)F (stereo not drawn) [Compound E1.049]
≥ 80%: all assays above

CCN(C)/C=N/c1cc(OC)c(C(O)(C2CCCC2)C(F)(F)F)cc1C (stereo not drawn) [Compound E1.050]
≥ 80%: all assays above

CCN(C)/C=N/c1cc(OC)c(C(O)(CC(C)C)C(F)(F)F)cc1C (stereo not drawn) [Compound E1.051]
≥ 80%: all assays above

CCCCC(O)(c1cc(C)c(/N=C/N(C)C(C)C)cc1OC)C(F)(F)F (stereo not drawn) [Compound E1.053]
≥ 80%: all assays above

CCN(C)/C=N/c1cc(OC)c(C(O)(C(C)C)C(F)(F)F)cc1C (stereo not drawn) [Compound E1.054, N-ethyl-N′-[4-[1-hydroxy-2-methyl-1-(trifluoromethyl)propyl]-5-methoxy-2-methyl-phenyl]-N-methyl-formamidine]
≥ 80%: all assays above

COc1cc(/N=C/N(C)C(C)C)c(C)cc1C(O)(C1CCCC1)C(F)(F)F (stereo not drawn) [Compound E1.060]
≥ 80%: [1] | [2] | [3]

CCN(C)/C=N/c1cc(OC)c(C(O)(C2CCC(C)(C)CC2)C(F)(F)F)cc1C (stereo not drawn) [Compound E1.061]
≥ 80%: all assays above

CCN(C)/C=N/c1cc(OC)c(C(O)(C2CCC(C)CC2)C(F)(F)F)cc1C (stereo not drawn) [Compound E1.062]
≥ 80%: all assays above

CCCCCC(O)(c1cc(C)c(/N=C/N(C)CC)cc1OC)C(F)(F)F (stereo not drawn) [Compound E1.065]
≥ 80%: all assays above

CCN(C)/C=N/c1cc(OC)c(C(O)(CC(C)(C)C)C(F)(F)F)cc1C (stereo not drawn) [Compound E1.066]
≥ 80%: all assays above

CCN(C)/C=N/c1cc(OC)c(C(O)(CCC(C)C)C(F)(F)F)cc1C (stereo not drawn) [Compound E1.068]
≥ 80%: all assays above

CCN(C)/C=N/c1cc(OC)c(C(O)(C2CCC2)C(F)(F)F)cc1C (stereo not drawn) [Compound E1.069]
≥ 80%: all assays above

C=C(C)CC(O)(c1cc(C)c(/N=C/N(C)CC)cc1OC)C(F)(F)F (stereo not drawn) [Compound E1.075]
≥ 80%: all assays above

CCN(C)/C=N/c1cc(OC)c(C(O)(C=C(C)C)C(F)(F)F)cc1C (stereo not drawn) [Compound E1.076]
≥ 80%: all assays above

C=CC(O)(c1cc(C)c(/N=C/N(C)CC)cc1OC)C(F)(F)F (stereo not drawn) [Compound E1.077]
≥ 80%: all assays above

C=C(C)C(O)(c1cc(C)c(/N=C/N(C)CC)cc1OC)C(F)(F)F (stereo not drawn) [Compound E1.078]
≥ 80%: all assays above

CCN(C)/C=N/c1cc(OC)c(C(O)(C2=CCCC2)C(F)(F)F)cc1C (stereo not drawn) [Compound E1.079]
≥ 80%: [1] | [2] | [3]

CCN(C)/C=N/c1cc(OC)c(C(O)(C2=CCCCC2)C(F)(F)F)cc1C (stereo not drawn) [Compound E1.080]
≥ 80%: [1] | [2] | [3]

C#CCC(O)(c1cc(C)c(/N=C/N(C)CC)cc1OC)C(F)(F)F (stereo not drawn) [Compound E1.083]
≥ 80%: all assays above

CCN(C)/C=N/c1cc(OC)c(C(O)(Cc2ccc(F)cc2)C(F)(F)F)cc1C (stereo not drawn) [Compound E1.091]
≥ 80%: [1] | Phakopsora pachyrhizi | [3]

CCN(C)/C=N/c1cc(OC)c(C(O)(Cn2cc3ccccc3n2)C(F)(F)F)cc1C (stereo not drawn) [Compound E1.092]
≥ 80%: [1] | [2] | [3]

CCN(C)/C=N/c1cc(OC)c(C(O)(Cn2nc(C)c(Cl)c2C)C(F)(F)F)cc1C (stereo not drawn) [Compound E1.096]
≥ 80%: Phakopsora pachyrhizi

CCN(C)/C=N/c1cc(OC)c(C(O)(Cn2cncn2)C(F)(F)F)cc1C (stereo not drawn) [Compound E1.098]
≥ 80%: [1] | [2] | [3]

CCN(C)/C=N/c1cc(OC)c(C(O)(Cc2cccc(F)n2)C(F)(F)F)cc1C (stereo not drawn) [Compound E1.102]
≥ 80%: [1] | Phakopsora pachyrhizi | [3]

CCN(C)/C=N/c1cc(OC)c(C(O)(c2cnn(-c3ccccc3)c2)C(F)(F)F)cc1C (stereo not drawn) [Compound E1.109]
≥ 80%: [1] | [2] | [3]

CCN(C)/C=N/c1cc(OC)c(C(O)(c2cnn(C(C)C)c2)C(F)(F)F)cc1C (stereo not drawn) [Compound E1.110]
≥ 80%: [2] | [3]

CCN(C)/C=N/c1cc(OC)c(C(O)(c2cnn(CC)c2)C(F)(F)F)cc1C (stereo not drawn) [Compound E1.111]
≥ 80%: Phakopsora pachyrhizi | [2] | [3]

CCCCC(O)(c1cc(C)c(/N=C/N(C)CC)cc1SC)C(F)(F)F (stereo not drawn) [Compound E1.114]
≥ 80%: [1] | Phakopsora pachyrhizi | [3]
